From US10173991B2, “Sulfone amide linked benzothiazole inhibitors of endothelial lipase” (BRISTOL-MYERS SQUIBB COMPANY, priority 2014, dated 2019)

These compounds were tested against Endothelial lipase (EL) (Homo sapiens (Human), UniProt Q9Y5X9) (assay: Endothelial lipase (EL) enzymatic assay with fluorescent substrate A10070 in DMPG vesicles).
Assay type: biochemical
Method in brief: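 EL from conditioned medium of HT-1080 cells engineered to overexpress endogenous EL; HL partially purified from conditioned medium of HL-overexpressing COS cells. Enzyme preincubated with compound 30 min at 37° C in 50 mM HEPES pH 8.0, 50 mM NaCl, 1 mM CaCl2; DMPG vesicles carrying FRET substrate (0.11 mole fraction) then added.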

Sequence of Endothelial lipase (EL) (Q9Y5X9 21-500): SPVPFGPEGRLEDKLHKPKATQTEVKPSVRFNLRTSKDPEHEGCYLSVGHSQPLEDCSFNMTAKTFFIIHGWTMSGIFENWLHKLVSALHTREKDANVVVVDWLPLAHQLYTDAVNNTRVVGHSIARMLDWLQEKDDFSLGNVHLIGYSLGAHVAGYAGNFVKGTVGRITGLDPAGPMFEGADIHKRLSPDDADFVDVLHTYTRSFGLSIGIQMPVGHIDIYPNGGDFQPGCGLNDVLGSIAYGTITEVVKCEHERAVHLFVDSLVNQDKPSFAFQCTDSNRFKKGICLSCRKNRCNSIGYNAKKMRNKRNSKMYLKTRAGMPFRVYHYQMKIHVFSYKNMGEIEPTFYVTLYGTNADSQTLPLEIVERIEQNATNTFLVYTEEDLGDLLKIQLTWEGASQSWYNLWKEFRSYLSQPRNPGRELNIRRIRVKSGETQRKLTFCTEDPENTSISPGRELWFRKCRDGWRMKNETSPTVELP

SMILES	IC50
COCCS(=O)(=O)C(C(=O)NCC(=O)NC1CC1)c1nc2cc(OC)c(-c3cccnc3F)cc2s1 (centres unmarked) [Example 219, N-[(cyclopropyl-carbamoyl)methyl]-2-[6-(2-fluoropyridin-3-yl)-5-methoxy-1,3-benzothiazol-2-yl]-2-(2-methoxyethane-sulfonyl) acetamide]	0.039 µM
COCCS(=O)(=O)C(C(=O)NCC(=O)NC1CC1)c1nc2c(F)cc(-c3ccn(C)c(=O)c3)cc2s1 (centres unmarked) [Example 220, N-[(cyclopropyl-carbamoyl)methyl]-2-[4-fluoro-6-(1-methyl-2-oxo-1,2-dihydropyridin-4-yl)-1,3-benzothiazol-2-yl]-2-(2-methoxyethane-sulfonyl) acetamide]	0.06 µM
COCCS(=O)(=O)C(C(=O)NCC(=O)NC1CC1)c1nc2c(F)cc(-c3cncnc3)cc2s1 (centres unmarked) [Example 221, N-[(cyclopropyl-carbamoyl)methyl]-2-[4-fluoro-6-(pyrimidin-5-yl)-1,3-benzothiazol-2-yl]-2-(2-methoxyethane-sulfonyl) acetamide]	0.061 µM
CC(C)(C)OC(=O)N1CCC(S(=O)(=O)C(C(=O)NCC(=O)NC2CC2)c2nc3ccc(-c4ccc(F)nc4)cc3s2)CC1 (centres unmarked) [Example 222, tert-butyl 4-({[(cyclopropyl-carbamoyl)methyl]carbamoyl}[6-(6-fluoropyridin-3-yl)-1,3-benzothiazol-2-yl]methanesulfonyl) piperidine-1-carboxylate]	0.078 µM
COCCS(=O)(=O)C(C(=O)NCC(=O)NC1CC1)c1nc2c(F)cc(-c3cnc(C4CC4)nc3)cc2s1 (centres unmarked) [Example 223, N-[(cyclopropyl-carbamoyl)methyl]-2-[6-(2-cyclopropyl-pyrimidin-5-yl)-4-fluoro-1,3-benzothiazol-2-yl]-2-(2-methoxyethane-sulfonyl) acetamide]	0.08 µM
CN(C)c1ccc(-c2ccc3nc(C(C(=O)NCC(=O)NC4CC4)S(=O)(=O)Cc4ccc(F)cc4)sc3c2)cn1 (centres unmarked) [Example 224, N-[(cyclopropyl-carbamoyl)methyl]-2-{6-[6-(dimethylamino)pyridin-3-yl]-1,3-benzothiazol-2-yl}-2-[(4-fluorophenyl)methanesulfonyl] acetamide]	0.086 µM
COCCS(=O)(=O)C(C(=O)NCC(=O)NC1CC1)c1nc2c(F)cc(-c3ccc(=O)n(C(C)C)c3)cc2s1 (centres unmarked) [Example 225, N-[(cyclopropyl-carbamoyl)methyl]-2-{4-fluoro-6-[6-oxo-1-(propan-2-yl)-1,6-dihydropyridin-3-yl]-1,3-benzothiazol-2-yl}-2-(2-methoxyethane-sulfonyl) acetamide]	0.088 µM
COCCNC(=O)c1ccc(-c2ccc3nc(C(C(=O)NCC(=O)NC4CC4)S(=O)(=O)Cc4ccc(F)cc4)sc3c2)cc1 (centres unmarked) [Example 226, 4-[2-({[(cyclopropyl-carbamoyl)methyl]carbamoyl}(4-fluorophenyl)methanesulfonyl-methyl)-1,3-benzothiazol-6-yl]-N-(2-methoxyethyl) benzamide]	0.091 µM
CC(C)(C)OC(=O)N1CC(S(=O)(=O)C(C(=O)NCC(=O)NC2CC2)c2nc3ccc(-c4ccc(F)nc4)cc3s2)C1 (centres unmarked) [Example 227, tert-butyl 3-({[(cyclopropyl-carbamoyl)methyl]carbamoyl}[6-(6-fluoropyridin-3-yl)-1,3-benzothiazol-2-yl]methanesulfonyl) azetidine-1-carboxylate]	0.103 µM
CC(C)S(=O)(=O)C(C(=O)NCC(=O)NC1CC1)c1nc2cc(F)c(-c3cn(C)c(=O)c4ccccc34)cc2s1 (centres unmarked) [Example 233, N-[(cyclopropyl-carbamoyl)methyl]-2-[5-fluoro-6-(2-methyl-1-oxo-1,2-dihydro-isoquinolin-4-yl)-1,3-benzothiazol-2-yl]-2-(propane-2-sulfonyl) acetamide]	0.026 µM
CC(C)Oc1ccc(-c2cc3sc(C(C(=O)NCC(=O)NC4CC4)S(=O)(=O)C(C)C)nc3cc2F)cn1 (centres unmarked) [Example 235, N-[(cyclopropyl-carbamoyl)methyl]-2-{5-fluoro-6-[6-(propan-2-yloxy)pyridin-3-yl]-1,3-benzothiazol-2-yl}-2-(propane-2-sulfonyl) acetamide]	0.006 µM

The next lines start with the values.

IC50	SMILES
0.15 µM	O=C(CNC(=O)C(c1nc2ccc(-c3cccnc3F)cc2s1)S(=O)(=O)Cc1ccc(F)cc1)NC1CC1 (centres unmarked) [Example 229, N-[(cyclopropyl-carbamoyl)methyl]-2-[(4-fluorophenyl)methanesulfonyl]-2-[6-(2-fluoropyridin-3-yl)-1,3-benzothiazol-2-yl]acetamide]
0.046 µM	CC(C)n1cc(-c2ccc3nc(C(C(=O)NCC(=O)NC4CC4)S(=O)(=O)Cc4cccc(C#N)c4)sc3c2)ccc1=O (centres unmarked) [Example 230, 2-[(3-cyanophenyl)methanesulfonyl]-N-[(cyclopropyl-carbamoyl)methyl]-2-{6-[6-oxo-1-(propan-2-yl)-1,6-dihydropyridin-3-yl]-1,3-benzothiazol-2-yl}acetamide]
0.011 µM	Cc1ncc(-c2cc3sc(C(C(=O)NCC(=O)NC4CC4)S(=O)(=O)C(C)C)nc3cc2F)cn1 (centres unmarked) [Example 231, N-[(cyclopropyl-carbamoyl)methyl]-2-[5-fluoro-6-(2-methylpyrimidin-5-yl)-1,3-benzothiazol-2-yl]-2-(propane-2-sulfonyl) acetamide]
0.122 µM	CC(C)S(=O)(=O)C(C(=O)NCC(=O)NC1CC1)c1nc2cc(F)c(-c3cnc(=O)[nH]c3)cc2s1 (centres unmarked) [Example 232, N-[(cyclopropyl-carbamoyl)methyl]-2-[5-fluoro-6-(2-oxo-1,2-dihydropyrimidin-5-yl)-1,3-benzothiazol-2-yl]-2-(propane-2-sulfonyl) acetamide]
0.006 µM	CC(C)S(=O)(=O)C(C(=O)NCC(=O)NC1CC1)c1nc2cc(F)c(-c3ccc4[nH]c(=O)ccc4c3)cc2s1 (centres unmarked) [Example 234, N-[(cyclopropyl-carbamoyl)methyl]-2-[5-fluoro-6-(2-oxo-1,2-dihydroquinolin-6-yl)-1,3-benzothiazol-2-yl]-2-(propane-2-sulfonyl) acetamide]
0.016 µM	CC(C)S(=O)(=O)C(C(=O)NCC(=O)NC1CC1)c1nc2cc(F)c(-c3ccc4c(c3)CNC4=O)cc2s1 (centres unmarked) [Example 236, N-[(cyclopropyl-carbamoyl)methyl]-2-[5-fluoro-6-(1-oxo-2,3-dihydro-1H-isoindol-5-yl)-1,3-benzothiazol-2-yl]-2-(propane-2-sulfonyl) acetamide]
0.005 µM	CC(C)S(=O)(=O)C(C(=O)NCC(=O)NC1CC1)c1nc2cc(F)c(-c3ccc4cnn(C)c4c3)cc2s1 (centres unmarked) [Example 237, N-[(cyclopropyl-carbamoyl)methyl]-2-[5-fluoro-6-(1-methyl-1H-indazol-6-yl)-1,3-benzothiazol-2-yl]-2-(propane-2-sulfonyl) acetamide]
0.005 µM	Cc1nc2cc(-c3cc4sc(C(C(=O)NCC(=O)NC5CC5)S(=O)(=O)C(C)C)nc4cc3F)ccc2s1 (centres unmarked) [Example 238, N-[(cyclopropyl-carbamoyl)methyl]-2-[5-fluoro-6-(2-methyl-1,3-benzothiazol-5-yl)-1,3-benzothiazol-2-yl]-2-(propane-2-sulfonyl)acetamide]
0.016 µM	CC(C)S(=O)(=O)C(C(=O)NCC(=O)NC1CC1)c1nc2cc(F)c(-c3ccc4c(c3)C(=O)NC4)cc2s1 (centres unmarked) [Example 239, N-[(cyclopropyl-carbamoyl)methyl]-2-[5-fluoro-6-(3-oxo-2,3-dihydro-1H-isoindol-5-yl)-1,3-benzothiazol-2-yl]-2-(propane-2-sulfonyl)acetamide]
